Patent publication US20230017045A1, “PYRIDINE AND PYRIMIDINE CARBOXYLATE HERBICIDES AND METHODS OF USE THEREOF” (Dow AgroSciences LLC, priority 2017, published 2023)
Like-named read-outs stand apart in the source and are kept apart here.

Test system: test plant species
Assay: Post-emergent herbicidal activity test (greenhouse, foliar spray, visual growth reduction)
Format: in vivo
Settings: post-emergence, 336 h, 140 g ai/ha, 14 days after application
Experimental: Post-emergent Test: Seeds or nutlets of the desired test plant species were planted in Sun Gro Metro-Mix® 360 planting mixture, which typically has a pH of 6.0 to 6.8 and an organic matter content of about 30 percent, in plastic pots with a surface area of 64 square centimeters. In some aspects, to ensure good germination and healthy plants, a fungicide treatment and/or other chemical or physical treatment was applied. The plants were grown for 7-21 d in a greenhouse with an approximate 15 h photoperiod which was maintained at 23-29° C. during the day and 22-28° C. during the night. Nutrients and water were added on a regular basis and supplemental lighting was provided with overhead metal halide 1000-Watt lamps as necessary. Plants were used for testing when they reached the first or second true leaf stage. A weighed amount, determined by the highest rate to be tested, of each test compound was placed in a 25 mL glass vial and was dissolved in 4 mL of a 97:3 v/v mixture of acetone and DMSO to obtain concentrated stock solutions. […] The concentrated stock solutions obtained were diluted with 20 mL of an aqueous mixture containing acetone, water, isopropyl alcohol, DMSO, […] crop oil concentrate, and X-77 surfactant in a 48.5:39:10:1.5:1.0:0.02 v/v ratio to obtain spray solutions containing the application rate. Compound requirements are based upon a 12 mL application volume at a rate of 187 liters per hectare (L/ha). Formulated compounds were applied to the plant material with an overhead Mandel track sprayer equipped with […] nozzles calibrated to deliver 187 L/ha over an application area of 0.64 square meters at a spray height of 18 inches (43 cm) above the average plant canopy height. Control plants were sprayed in the same manner with the solvent blank. The treated plants and control plants were placed in a greenhouse as described above and watered by subirrigation to prevent wash-off of the test compounds. After 14 d, the condition of the test plants as compared with that of the nontreated and control plants was determined visually and scored on a scale of 0 to 100 percent where 0 corresponds to no injury and 100 corresponds to complete control. In the reporting of the results, Table A: Percent Growth Reduction Conversion Table was used.

[1] = ALOMY: blackgrass (Alopecurus myosuroides), read-out: Visual Growth Reduction (%) 14 Days After Application, ALOMY
[2] = AMARE: redroot pigweed (Amaranthus retroflexus), read-out: Visual Growth Reduction (%) 14 Days After Application, AMARE
[3] = AVEFA: wild oat (Avena fatua), read-out: Visual Growth Reduction (%) 14 Days After Application, AVEFA
[4] = CHEAL: lambsquarters (Chenopodium album), read-out: Visual Growth Reduction (%) 14 Days After Application, CHEAL
[5] = CIRAR: canada thistle (Cirsium arvense), read-out: Visual Growth Reduction (%) 14 Days After Application, CIRAR
[6] = CYPES: yellow nutsedge (Cyperus esculentus), read-out: Visual Growth Reduction (%) 14 Days After Application, CYPES
[7] = DIGSA: crabgrass (Digitaria sanguinalis), read-out: Visual Growth Reduction (%) 14 Days After Application, DIGSA
[8] = ECHCG: barnyardgrass (Echinochloa crus-galli), read-out: Visual Growth Reduction (%) 14 Days After Application, ECHCG
[9] = IPOHE: ivy-leaf morning glory (Ipomoea hederacea), read-out: Visual Growth Reduction (%) 14 Days After Application, IPOHE
[10] = KCHSC: kochia (Bassia scoparia), read-out: Visual Growth Reduction (%) 14 Days After Application, KCHSC
[11] = ORYSA: rice (Oryza sativa), read-out: Visual Growth Reduction (%) 14 Days After Application, ORYSA
[12] = SETFA: giant foxtail (Setaria faberi), read-out: Visual Growth Reduction (%) 14 Days After Application, SETFA
[13] = SORVU: grain sorghum (Sorghum vulgare), read-out: Visual Growth Reduction (%) 14 Days After Application, SORVU
[14] = STEME: common chickweed (Stellaria media), read-out: Visual Growth Reduction (%) 14 Days After Application, STEME
[15] = TRZAS: wheat, spring (Triticum aestivum), read-out: Visual Growth Reduction (%) 14 Days After Application, TRZAS

Row | SMILES | pest or weed control at 140 g/ha [1] | pest or weed control at 140 g/ha [2] | pest or weed control at 140 g/ha [3] | pest or weed control at 140 g/ha [4] | pest or weed control at 140 g/ha [5] | pest or weed control at 140 g/ha [6] | pest or weed control at 140 g/ha [7] | pest or weed control at 140 g/ha [8] | pest or weed control at 140 g/ha [9] | pest or weed control at 140 g/ha [10] | pest or weed control at 140 g/ha [11] | pest or weed control at 140 g/ha [12] | pest or weed control at 140 g/ha [13] | pest or weed control at 140 g/ha [14] | pest or weed control at 140 g/ha [15]
1 | COC(=O)c1nc(-c2ccc(C(F)(F)F)cc2C)ccc1Cl [F29, Methyl 3-chloro-6-(2-methyl-4-(trifluoromethyl)phenyl)picolinate] | 0 to 29% | 60 to 74% | 0 to 29% | 60 to 74% | 0 to 29% | 0 to 29% | 45 to 59% | 0 to 29% | 95 to 100% | 0 to 29% | 0 to 29% | 0 to 29% | 60 to 74% | 0 to 29% | 0 to 29%
2 | COC(=O)c1nc(-c2ccc(C(F)(F)F)cc2Br)ccc1Cl [F30, Methyl 6-(2-bromo-4-trifluoromethyl)phenyl-3-chloropicolinate] | 60 to 74% | 95 to 100% | 45 to 59% | 95 to 100% | 85 to 94% | 0 to 29% | 85 to 94% | 45 to 59% | 95 to 100% | 75 to 84% | 0 to 29% | 45 to 59% | 85 to 94% | 0 to 29% | 60 to 74%
3 | C#Cc1ccc(-c2ccc(C(F)(F)F)cc2Cl)nc1C(=O)OC [F31, Methyl 6-(2-chloro-4-(trifluoromethyl)phenyl)-3-ethynylpicolinate] | 0 to 29% | 45 to 59% | 0 to 29% | 0 to 29% | 0 to 29% | 0 to 29% | 0 to 29% | 0 to 29% | 60 to 74% | 0 to 29% | 0 to 29% | 0 to 29% | 45 to 59% | 0 to 29% | 0 to 29%
4 | COC(=O)c1nc(-c2ccc(C(F)(F)F)cc2Cl)ccc1Br [F32, Methyl 3-bromo-6-(2-chloro-4-(trifluoromethyl)yl)picolinate] | 0 to 29% | 60 to 74% | 0 to 29% | 60 to 74% | 75 to 84% | 0 to 29% | 60 to 74% | 0 to 29% | 95 to 100% | 45 to 59% | 0 to 29% | 30 to 44% | 85 to 94% | 0 to 29% | 0 to 29%
5 | COC(=O)c1nc(-c2ccc(C(F)(F)F)cc2Cl)c(O)cc1Cl [F34, methyl 3-chloro-6-(2-chloro-4-(trifluoromethyl)phenyl)-5-hydroxypicolinate] | 0 to 29% | 0 to 29% | 0 to 29% | 45 to 59% | 0 to 29% | 0 to 29% | 0 to 29% | 0 to 29% | 0 to 29% | 0 to 29% | 0 to 29% | 0 to 29% | 0 to 29% | 0 to 29% | 0 to 29%
6 | COC(=O)c1nc(-c2ccc(OC)cc2Cl)ccc1Cl [F35, Methyl 3-chloro-6-(2-chloro-4-methoxyphenyl) picolinate] | 0 to 29% | 30 to 44% | 0 to 29% | 0 to 29% | 0 to 29% | 0 to 29% | 0 to 29% | 0 to 29% | 0 to 29% | 0 to 29% | 0 to 29% | 0 to 29% | 0 to 29% | 0 to 29% | 0 to 29%
7 | COC(=O)c1nc(-c2ccc(OC(C)(C)C)cc2Cl)ccc1Cl [F36, Methyl 6-(4-(tert-butoxy)-2-chlorophenyl)-3-chloropicolinate] | 0 to 29% | 0 to 29% | 0 to 29% | 0 to 29% | 0 to 29% | 0 to 29% | 0 to 29% | 0 to 29% | 0 to 29% | 0 to 29% | 0 to 29% | 0 to 29% | 0 to 29% | 0 to 29% | 0 to 29%
8 | COC(=O)c1nc(-c2ccc(F)cc2Cl)ccc1Cl [F37, Methyl 3-chloro-6-(2-chloro-4-fluorophenyl) picolinate] | 0 to 29% | 85 to 94% | 0 to 29% | 60 to 74% | 0 to 29% | 0 to 29% | 0 to 29% | 0 to 29% | 75 to 84% | 0 to 29% | 0 to 29% | 0 to 29% | 75 to 84% | 0 to 29% | 0 to 29%
9 | COC(=O)c1nc(-c2cc(C(F)(F)F)ccc2Cl)ccc1Cl [F38, Methyl 3-chloro-6-(2-chloro-5-(trifluoromethyl)phenyl)picolinate] | 0 to 29% | 0 to 29% | 0 to 29% | 0 to 29% | 0 to 29% | 0 to 29% | 0 to 29% | 0 to 29% | 0 to 29% | 0 to 29% | 0 to 29% | 0 to 29% | 0 to 29% | 0 to 29% | 0 to 29%
